For test [1], the system named is Plasmodium falciparum T96 Zellinie A. The test is described as follows: Growth inhibition of chloroquine-sensitive P. falciparum cultured in human erythrocytes. It counts as cell-based. The conditions noted are these: for IC20 / IC50: Plasmodium falciparum, Erythrocyte; for IC50: over 2 cycles. From the text:
(§1) • a) Durch konventionelles Züchten des Stammes Plasmodium falciparum T96 in einer 2 % (V/V) Suspension von humanen Erythrozyten wird der Grundorganismus-Zellinie A fortgepflanzt, welche eine normale Empfindlichkeit gegenüber Chloroquin aufweist. • b) Zellinie A des obigen Stammes wird unter analogen Standardbedingungen wie unter a) gezüchtet, jedoch mit Zusatz von immer ansteigenden Konzentrationen von Chloroquin, bis eine Chloroquinresistente Zellinie B resultiert, welche weiterhin in Kulturmedien mit einer 500 nM-Konzentration von Chloroquin andauernd normales Wachstum (dieselbe Wachstumsraten wie Zellinie A) aufweist.
(§2) • I. Die Züchtung von Testorganismen erfolgt unter den für Züchtung von Plasmodien üblichen Bedingungen auf einer 2 % Suspension von humanen Erythrozyten, supplementiert mit 50 mg/1 Hypoxanthin und gegebenenfalls unter Zugabe der getesteten Hemmsubstanz in gewünschter Konzentration. Die initiale Parasitämie (- der prozentuelle Anteil der zu Beginn von Plasmodien infizierten Erythrozyten) beträgt 1-2 %. Das Resultat (Hemmwirkung) wird als IC50 ausgewertet, d.h. jene Konzentration des Wirkstoffes, die eine Senkung der finalen Parasitämie um 50 %, d.h. eine 50%ige Hemmung des Wachstums, verursacht. • II. In einer alternativen Versuchsanordnung wird beim Einhalten aller übrigen Bedingungen ohne Zugabe von Hypoxanthin und mit einer initialen Parasitämie von 0,5 % gearbeitet.

Test [2] deals with Plasmodium falciparum T96 Chloroquinresistente Zellinie B. Briefly: Growth inhibition of chloroquine-resistant P. falciparum cultured in human erythrocytes. It counts as cell-based. The note with it: for IC50: Plasmodium falciparum, Erythrocyte, over 2 cycles.
Text: as §1, §2

The test system of the next test is P. vinckei. The note with it: cited from earlier work.
Test [3] relates to Plasmodium falciparum in Kultur an menschlichen Erythrozyten. The note with it: culture on human erythrocytes; cited from earlier work.

Molecules are shown by their SMILES. Where two headings read alike, the source gives them in different places.

One may read the IC20 as the point of the concentration-response curve where the effect stands at 20%. By IC50 is commonly meant the concentration that gives 50% inhibition.

As to `COc1ncnc(NS(=O)(=O)c2ccc(N)cc2)c1OC` [Sulfadoxine], the “Wachstumshemmung (result in words)” value in test [1] (Hauptversuch II with this substance in place of chloroquine, combined with Desferrioxamin B) was “Analoge Resulte”.

Compound `CCN(CC)CCCC(C)Nc1ccnc2cc(Cl)ccc12` (stereo not drawn) [Chloroquin, 7-Chlor-4-(4-diethylamino-l-methylbutylamino)chinolin] registered an IC20 in test [1] of 0.01 µM. Further, the IC50 in test [1] (Versuchsanordnung I (50 mg/l hypoxanthine, initial parasitaemia 1-2 %)) is 0.05 µM; in test [1] (Versuchsanordnung II (no hypoxanthine, initial parasitaemia 0,5 %)) it was 0.01 to 0.015 µM; in test [2] (Versuchsanordnung I), approximately 0.8 µM. Further, in test [2] (Versuchsanordnung I, with 500 nM chloroquine in the medium, same as Zellinie A without chloroquine (within 48 hours)), the Vermehrungsfaktor was 7-9.

On to `CC(=O)N(O)CCCCCNC(=O)CCC(=O)N(O)CCCCCNC(=O)CCC(=O)N(O)CCCCCN` [Desferrioxamin B (Mesylat)], for which the IC20 in test [1] (Versuchsanordnung I, Hauptversuch II, read-out: IC20) was determined as 9 µM.

Take `CC(=O)N(O)CCCCCNC(=O)CCC(=O)N(O)CCCCCNC(=O)CCC(=O)N(O)CCCCCN` [Desferrioxamin B, 6,17,28-Trihydroxy-7,10,18,21,29-pentaoxo-6,11,17,22,28-pentaaza-triacontanylamin]: the “Wachstum des Parasiten” value in the test with P. vinckei (0,2 g/kg) is “deutlich hemmt”; in the test with P. vinckei (1,0 g/kg) it was “vollständig tötet”. For the same compound, the half-inhibitory concentration (IC50) in test [1] (Versuchsanordnung I, read-out: IC50) was determined as 17 ± 3 µM; in test [1] (Versuchsanordnung II, read-out: IC50), 5 ± 2 µM; in test [2] (Versuchsanordnung I, without chloroquine in the test medium), 6 ± 1.5 µM; in test [2] (Versuchsanordnung II, without chloroquine in the test medium), 2 ± 1 µM. Further, the “Konzentration für dieselbe Wachstumshemmung in the presence of chloroquine” value in test [2] (in the presence of a chloroquine concentration inactive by itself, compared with no chloroquine) is reported as “halbiert sich noch weiter”. In addition, in test [2] (without chloroquine, compared with normally sensitive strain under the same conditions), the “Konzentration für dieselbe Wachstumshemmung, resistant strain compared with sensitive strain” value was “etwa dreimal niedrigeren Konzentration”. For the same compound, in test [3], the “Wachstum (in vitro)” value is given as “nicht nur in ihrem Wachstum gehemmt, sondern auch getötet”.

Source of the values: patent EP0214933A2, “Mixture preparations for the treatment of malaria” (CIBA-GEIGY AG, priority 1985, dated 1987).
